Where two headings read alike, the source gives them in different places. *1 amine or outer side, *2 acyl side, *3 side chain or, on linkers, in order; H or OH if unused. Where a SMILES comes first, the peptide text is derived from it. Bridges are numbered along the chain shown (N, C = ends). [ ]: non-standard residue; d: D form. N(4-F-Bzl)Gly = O=C(O)CNCc1ccc(F)cc1; X1 = O=C(CCC[*:2])[*:1]
Columns and labels:
healthy women [1] = system: healthy women;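 as to Any AE: number of AEs, E: adverse events in healthy women given intranasal doses every 3 h over 45 h (16 doses per panel), each panel with 6 active and 2 placebo subjects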;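 as to Any AE: subjects with AE, n (%): adverse events in healthy women given intranasal doses every 3 h over 45 h (16 doses per panel), each panel with 6 active and 2 placebo subjects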;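 as to Breast tenderness: number of AEs, E: adverse events in healthy women given intranasal doses every 3 h over 45 h (16 doses per panel), each panel with 6 active and 2 placebo subjects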;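 as to Breast tenderness: subjects with AE, n (%): adverse events in healthy women given intranasal doses every 3 h over 45 h (16 doses per panel), each panel with 6 active and 2 placebo subjects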
Protocol: Part 2. Ascending multiple i.n. doses. There were 3 dose panels with 8 healthy women in each dose panel (6 active, 2 placebo). The dosing schedule was every 3 hours for 45 hours, i.e. 16 doses in all. The doses investigated were 50 μg, 200 μg, and 400 μg.
Three dose levels were investigated: the first dose was 50 μg, the second dose was 200 μg (intermediate between the first dose and the maximal tolerated dose in Part 1), and the highest dose was 400 μg (the maximal dose in Part 1).

healthy women [2] = details: in vivo
clinical = details: female, human, in vivo
Protocol: (§1) The first clinical trial in human, Trial 000015, was a double-blind, placebo-controlled, single dose, within dose panel randomised, sequential dose escalating study. The trial was divided into three parts:
(§2) Part 1. Ascending single i.n. doses. There were 7 dose panels with 8 healthy women in each dose panel (6 active, 2 placebo). The doses investigated were 5 μg, 15 μg, 50 μg, 100 μg, 200 μg, 300 μg, and 400 μg.
(§3) Seven dose levels were investigated: 5, 15, 50, 100, 200, 300, and 400 μg. Each of the doses were administered as a nasal spray based on one or multiple puffs per nostril.
(§4) FE 202767 was provided as an isotonic citrate/phosphate buffered solution of pH 5.5 in water in vials containing an extractable volume of 0.9 mL (Table 2). The concentration of FE 202767 was 0.7 mg/mL, to be used appropriately diluted with buffer or, for Part 3, NaCl for injection. The buffer used for FE 202767 was used as placebo in this study.

[3] = Trial 000015 Part 1: pharmacokinetics after single intranasal administration
Protocol: as §1, §2, §3, §4

[4] = Trial 000015 Part 3: pharmacokinetics, single intranasal and single intravenous cross-over; details: female, human, plasma; for Tmax: tmax Mean (SD); for bioavailability: 400 μg i.n. vs 20 μg i.v.
Protocol: Open-label cross-over single i.n. and single i.v. dose in 6 healthy women. The doses investigated were 20 μg as an i.v. infusion over 25 minutes, and 400 μg as a single i.n. dose.
The intranasal dose was 400 μg (4×140 μl, the same as the highest dose in Part 1), the i.v. dose was 20 μg infused in 2 mL over 25 minutes.
The intravenous dose and infusion rate were determined from the intranasal pharmacokinetic data in Part 1.

[5] = multiple doses 50 μg i.n., N = 6
[6] = multiple doses 200 μg i.n., N = 6
[7] = multiple doses 400 μg i.n., N = 6

CC[C@H](C)[C@@H]1NC(=O)[C@H](Cc2ccc(O)cc2)NC(=O)CCCSC[C@@H](C(=O)N(CC(=O)N[C@@H](CC(C)C)C(=O)NCC(N)=O)Cc2ccc(F)cc2)NC(=O)[C@H](CC(N)=O)NC(=O)[C@H](CCC(N)=O)NC1=O [merotocin, Glycinamide, N-(4-mercapto-1-oxobutyl)-L-tyrosyl-L-isoleucyl-Lglutaminyl-L-asparaginyl-L-cysteinyl-N-[(4-fluorophenyl)methyl]glycyl-L-leucyl-, cyclic (1→5)-thioether] (YIQNC[N(4-F-Bzl)Gly]LG-NH2; linker N-5 via X1)
Any AE: number of AEs, E (healthy women [1]; [5]): 3 | Any AE: subjects with AE, n (%) (healthy women [1]; [5]): 3 (50%) | Breast tenderness: number of AEs, E (healthy women [1]; [5]): 1 | Breast tenderness: subjects with AE, n (%) (healthy women [1]; [5]): 1 (17%) | Headache: number of AEs, E (healthy women [1]; [5]): 2 | Headache: subjects with AE, n (%) (healthy women [1]; [5]): 2 (33%) | Any AE: number of AEs, E (healthy women [1]; [6]): 5 | Any AE: subjects with AE, n (%) (healthy women [1]; [6]): 4 (67%) | Dry mouth: number of AEs, E (healthy women [1]; [6]): 3 | Dry mouth: subjects with AE, n (%) (healthy women [1]; [6]): 3 (50%) | Flushing: number of AEs, E (healthy women [1]; [6]): 1 | Flushing: subjects with AE, n (%) (healthy women [1]; [6]): 1 (17%) | Headache: number of AEs, E (healthy women [1]; [6]): 1 | Headache: subjects with AE, n (%) (healthy women [1]; [6]): 1 (17%) | Any AE: number of AEs, E (healthy women [1]; [7]): 6 | Any AE: subjects with AE, n (%) (healthy women [1]; [7]): 3 (50%) | Dry mouth: number of AEs, E (healthy women [1]; [7]): 2 | Dry mouth: subjects with AE, n (%) (healthy women [1]; [7]): 2 (33%) | Flushing: number of AEs, E (healthy women [1]; [7]): 1 | Flushing: subjects with AE, n (%) (healthy women [1]; [7]): 1 (17%) | Headache: number of AEs, E (healthy women [1]; [7]): 2 | Headache: subjects with AE, n (%) (healthy women [1]; [7]): 1 (17%) | Nausea: number of AEs, E (healthy women [1]; [7]): 1 | Nausea: subjects with AE, n (%) (healthy women [1]; [7]): 1 (17%) | number of TEAEs reported (healthy women [1]; multiple doses, 24 subjects): 14 | degradation by chymotrypsin (chymotrypsin): degradable by chymotrypsin | ECG and safety laboratory parameters (healthy women [2]): not affected to any measurable extent | blood pressure shifts (healthy women [2]): Only occasional events of blood pressure shifts | pulse rate (healthy women [2]): appeared to increase the pulse rate | urinary retention (healthy women [2]): no signs of urinary retention | half-life (clinical; inhaled or intranasal, 200 ug, t1/2 Median): 23.4 min | half-life (clinical; inhaled or intranasal, 400 ug, t1/2 Harmonic mean): 33.6 min | half-life (clinical; inhaled or intranasal, 400 ug, t1/2 Median): 33 min | half-life (clinical; t1/2): 25 to 35 min | Cmax ([3]; female, human, plasma, inhaled or intranasal, 100 ug, Cmax Geom. mean (% CV), single i.n. dose 100 μg, N = 6): 0.0379 ng/mL | Cmax ([3]; female, human, plasma, inhaled or intranasal, 100 ug, Cmax Median, single i.n. dose 100 μg, N = 6): 0.0322 ng/mL | AUC(0-t) ([3]; female, human, plasma, inhaled or intranasal, 200 ug, AUCt Geom. mean (% CV), single i.n. dose 200 μg, N = 6): 0.0357 ng·h/mL | AUC(0-t) ([3]; female, human, plasma, inhaled or intranasal, 200 ug, AUCt Median, single i.n. dose 200 μg, N = 6): 0.0525 ng·h/mL | Cmax ([3]; female, human, plasma, inhaled or intranasal, 200 ug, Cmax Geom. mean (% CV), single i.n. dose 200 μg, N = 6): 0.0841 ng/mL | Cmax ([3]; female, human, plasma, inhaled or intranasal, 200 ug, Cmax Median, single i.n. dose 200 μg, N = 6): 0.0999 ng/mL | AUC(0-t) ([3]; female, human, plasma, inhaled or intranasal, 300 ug, AUCt Geom. mean (% CV), single i.n. dose 300 μg, N = 6): 0.0778 ng·h/mL | AUC(0-t) ([3]; female, human, plasma, inhaled or intranasal, 300 ug, AUCt Median, single i.n. dose 300 μg, N = 6): 0.0943 ng·h/mL | Cmax ([3]; female, human, plasma, inhaled or intranasal, 300 ug, Cmax Geom. mean (% CV), single i.n. dose 300 μg, N = 6): 0.143 ng/mL | Cmax ([3]; female, human, plasma, inhaled or intranasal, 300 ug, Cmax Median, single i.n. dose 300 μg, N = 6): 0.148 ng/mL | Tmax ([3]; female, human, plasma, inhaled or intranasal, 300 ug, tmax Mean (SD), single i.n. dose 300 μg, N = 6): 12 min | AUC(0-t) ([3]; female, human, plasma, inhaled or intranasal, 400 ug, AUCt Geom. mean (% CV), single i.n. dose 400 μg, N = 6): 0.0886 ng·h/mL | AUC(0-t) ([3]; female, human, plasma, inhaled or intranasal, 400 ug, AUCt Median, single i.n. dose 400 μg, N = 6): 0.119 ng·h/mL | Cmax ([3]; female, human, plasma, inhaled or intranasal, 400 ug, Cmax Median, single i.n. dose 400 μg, N = 6): 0.199 ng/mL | Tmax ([3]; female, human, plasma, inhaled or intranasal, 400 ug, tmax Mean (SD), single i.n. dose 400 μg, N = 6): 13.2 min | Tmax ([3]; female, human, plasma, other: intranasal, tmax, all i.n. dose levels, single or multiple administration): 12 to 15 min | Tmax ([3]; female, human, plasma, other: intranasal, tmax, single i.n. dose, all dose groups): 12 to 15 min | half-life ([3]; female, human, plasma, other: intranasal, t½, after i.n. administration, Trial 000015 key results): ~30 min | increase of exposure (AUC and Cmax) with dose ([3]; single i.n. doses): close to dose proportional manner | AUC(0-t) ([4]; inhaled or intranasal, 400 ug, AUCt Geom. mean (% CV), cross-over, 400 μg i.n. single dose, N = 6): 0.083 ng·h/mL | AUC(0-t) ([4]; inhaled or intranasal, 400 ug, AUCt Median, cross-over, 400 μg i.n. single dose, N = 6): 0.0728 ng·h/mL | half-life ([4]; inhaled or intranasal, 400 ug, t1/2 Median, cross-over, 400 μg i.n. single dose, N = 6): 36.6 min | Tmax ([4]; inhaled or intranasal, 400 ug, cross-over, 400 μg i.n. single dose, N = 6): 6.6 min | AUC(0-t) ([4]; iv, 20 ug, AUCt Geom. mean (% CV), cross-over, 20 μg i.v. infusion over 25 minutes, N = 6): 0.146 ng·h/mL | clearance ([4]; iv, 20 ug, CL Median, 20 μg i.v. infusion over 25 minutes, N = 6): 2130 mL/min | Cmax ([4]; iv, 20 μg, Cmax Geom. mean (% CV), cross-over, 20 μg i.v. infusion over 25 minutes, N = 6): 0.463 ng/mL | Cmax ([4]; iv, 20 ug, Cmax Median, cross-over, 20 μg i.v. infusion over 25 minutes, N = 6): 0.463 ng/mL | Vd ([4]; iv, 20 ug, Vz Mean (SD), 20 μg i.v. infusion over 25 minutes, N = 6): 37.5 L | Vd ([4]; iv, 20 ug, Vz Median, 20 μg i.v. infusion over 25 minutes, N = 6): 31.2 L | Cmax ([4]; iv, 20 μg, mean Cmax, single i.v. infusion of 20 μg over 25 minutes): 0.463 ng/mL | half-life ([4]; iv, 20 ug, t1/2 Harmonic mean, cross-over, 20 μg i.v. infusion over 25 minutes, N = 6): 10.2 min | half-life ([4]; iv, 20 ug, t1/2 Median, cross-over, 20 μg i.v. infusion over 25 minutes, N = 6): 10.8 min | Tmax ([4]; iv, 20 ug, cross-over, 20 μg i.v. infusion over 25 minutes, N = 6): 21.6 min | Cmax ([4]; other: intranasal, 400 ug, Cmax Geom. mean (% CV), cross-over, 400 μg i.n. single dose, N = 6): 0.151 ng/mL | Cmax ([4]; other: intranasal, 400 ug, Cmax Median, cross-over, 400 μg i.n. single dose, N = 6): 0.156 ng/mL | bioavailability ([4]; other: intranasal, 400 μg, F Median, N = 6): 3.4% | bioavailability ([4]; other: intranasal, 400 μg, bioavailability (range)): 2.2 to 6.2% | Cmax ([4]; other: intranasal, 400 μg, mean Cmax, single dose i.n. administration, highest dose group): 0.151 ng/mL

Reference: patent US20220313774A1, “INTRANASAL ADMINISTRATION OF MEROTOCIN FOR IMPROVING LACTATION” (FERRING B.V., priority 2019, published 2022)
